According to US20050175550A1, “Compositions for oral use” (priority 2000, published 2005):
Converted amounts (≈) assume the structure as drawn.

What was measured:
Assay type in all cases: cell-based
[1] = test system: Fusobacterium nucleatum ATCC25586; experiment: Minimum growth-inhibiting concentration on agar media (Example 2); settings: F. nucleatuium ATCC 25586, anaerobic, 37° C., 48-72 hours
Protocol: (§1) 3 ml of GAM broth (Nissui Medical) containing 5 μg/ml of hemin and 1 μg/ml of menadione was separately inoculated with one platinum loop each of subcultures of causative bacteria of periodontal disease, strains Porphyromonas gingivalis W83, W50, ATCC49417 and ATCC33277, strain Actinobacillus actinomycetemcomitans Y4, and strains Fusobacterium nucleatum ATCC10953 and ATCC25586, followed by incubation at 37° C. under anaerobic conditions (10% CO2, 10% H2 and 80% N2) overnight. Then, the resulting cultures were diluted to 10^−8, 10^−6, 10^−4 and 10^−3 to make inoculating bacterial solutions, respectively.
(§2) Agar media containing 400, 200, 100, 50, 25, 10 and 5 μg/ml of TFM, respectively, were prepared and streaked, about 2 cm long, with a platinum loop each of the above-prepared inoculating bacterial solutions, followed by incubation under the same anaerobic conditions as above at 37° C. for 48-72 hours to evaluate growth of the bacteria.

[2] = test system: Porphyromonas gingivalis ATCC49417; experiment: as above; settings: P. gingivalis ATCC 49417, anaerobic, 37° C., 48-72 hours
Protocol: as §1, §2

[3] = test system: Porphyromonas gingivalis W83; experiment: as above; settings: P. gingivalis W83, anaerobic, 37° C., 48-72 hours
Protocol: as §1, §2

[4] = test system: Fusobacterium nucleatum ATCC10953; experiment: as above; settings: F. nucleatuium ATCC 10953, anaerobic, 37° C., 48-72 hours
Protocol: as §1, §2

[5] = test system: Porphyromonas gingivalis ATCC33277; experiment: as above; settings: P. gingivalis ATCC 33277, anaerobic, 37° C., 48-72 hours
Protocol: as §1, §2

[6] = test system: Actinobacillus actinomycetemcomitans Y4; experiment: as above; settings: A. actinomycetemcomitans Y4, anaerobic, 37° C., 48-72 hours
Protocol: as §1, §2

[7] = test system: Porphyromonas gingivalis W50; experiment: as above; settings: P. gingivalis W50, anaerobic, 37° C., 48-72 hours
Protocol: as §1, §2

[8] = test system: Enterococcus faecium ATCC19434; experiment: MIC by agar plate dilution method on standard strains (Example 3)
Protocol: (§3) Drug solutions at a concentration 10 times as high as the maximum applicable concentration were prepared as original solutions of test drugs given in Table 2 (as to solvents used for this purpose, reference should be made also to Table 2). Serial two-fold dilution series of the original solutions were prepared at desired stages, and 1 ml each of the diluted drug solutions was added to 9 ml of media given in Table 3 to prepare drug plates. […] • 1) Bacterial solutions stocked at −80° C. were inoculated on agar media (as to media used, reference should be made to Table 3), and then incubated at 37° C. overnight. When desired, subculturing was conducted once more on the same agar media (by overnight incubation at 37° C.). • 2) Colonies growing on the agar media were sampled by a platinum loop, suspended in liquid media (reference should be made to Table 3) and statically incubated at 37° C. for 18 hours (preculturing). • 3) Preculturing was continued up to McFarland 0.5 (McFarland 0.5=about 10^8 CFU/ml), and then the culture broths were diluted with Muellar Hinton Broth to make 10^6 CFU/ml. 5 μl each of the diluted solutions were inoculated on the above-mentioned drug plates by an inoculator Microplanter. […] Thus, bacterial solutions at about 10^8 CFU/ml can be easily prepared by use of McFarland 0.5. Bacterial solutions at such a turbidity are commercially available, but can be easily prepared.

[9] = test system: Escherichia coli ATCC35218; experiment: as above
Protocol: as §3

[10] = test system: Bacillus subtilis ATCC6633; experiment: as above
Protocol: as §3

[11] = test system: Haemophilus influenzae ATCC49247; experiment: as above
Protocol: as §3

Escherichia coli BL 21 = experiment: Antibacterial test, propagation by turbidity in broth (Example 1); settings: medium containing 0.1 mM or 1.0 mM trifluoromethionine, FIG. 6
S. sanguis ST160 = experiment: Minimum growth-inhibiting concentration on agar media (Example 2); settings: Brain Heart Infusion, 5% CO2
Protocol: as §1, §2
(§4) Streptococcus sobrinus MT8246, Streptococcus sanuis ST160, Streptococcus mutans Xc and Streptococcus salivarius HHT were likewise incubated in Brain Heart Infusion (Difco) in the same manner as above except that the incubation was conducted in the presence of 5% CO2 to evaluate the growth.

[12] = test system: Streptococcus salivarius HHT; experiment: as above; settings: S. salivarius HHT; Brain Heart Infusion, 5% CO2
Protocol: as §1, §2, §4

[13] = test system: Streptococcus sobrinus MT8246; experiment: as above; settings: S. sobrinus MT8246; Brain Heart Infusion, 5% CO2
Protocol: as §1, §2, §4

Streptococcus mutans Xc = experiment: as above; settings: S. mutans Xc; Brain Heart Infusion, 5% CO2
Protocol: as §1, §2, §4

[14] = test system: Fusobacterium nucleatum ATCC10953; experiment: Antibacterial test, propagation by turbidity in broth (Example 1); settings: medium containing 0.1 mM or 1.0 mM trifluoromethionine, FIG. 4
Protocol: (§5) 3 ml of GAM broth (Nissui Medical) containing 5 μg/ml of hemin and 1 μg/ml of menadione was separately incubated with one platinum loop each of subcultures of strains Porphyromonas gingivalis W83, ATCC33277 and M1217, and strain Fusobacterium nucleatum ATCC10953, followed by incubation at 37° C. under anaerobic conditions (10% CO2, 10% H2, 80% N2) overnight. The same fresh medium as above was inoculated with the resulting culture in such an amount that an absorbance at 550 nm of the inoculated medium could be about 0.15, followed by incubation under the same condition as above. Furthermore, the above-mentioned strains were incubated in the above-mentioned medium further containing 0.1 mM or 1.0 mM trifluoromethionine. Absorbance at 550 nm of the individual cultures was measured with time to evaluate propagation of bacteria through the turbidity of the medium. Results are shown in FIG. 1 to 4 (A to D), where the results of using the trifluoromethionine-free medium are shown by □ curve, and those of using media containing 0.1 mM and 1.0 mM trifluoromethionine, respectively, are shown by ▪ and ● curves.

[15] = test system: Porphyromonas gingivalis W83, ATCC33277 and M1217; experiment: as above; settings: medium containing 0.1 mM or 1.0 mM trifluoromethionine, FIGS. 1-3
Protocol: as §5

## N[C@@H](CCSC(F)(F)F)C(=O)O [TFM, Trifluoromethionine]
[1]
  Minimum growth-inhibiting concentration: 25 µg/mL
[2]
  Minimum growth-inhibiting concentration: 5 µg/mL
[3]
  Minimum growth-inhibiting concentration: 5 µg/mL
[4]
  Minimum growth-inhibiting concentration: 25 µg/mL
[5]
  Minimum growth-inhibiting concentration: 5 µg/mL
[6]
  Minimum growth-inhibiting concentration: 10 µg/mL
[7]
  Minimum growth-inhibiting concentration: 5 µg/mL
[8]
  MIC: >400 µg/mL
[9]
  MIC: >400 µg/mL
[10]
  MIC: >400 µg/mL
[11]
  MIC: 50 µg/mL (≈ 246 µM)
Escherichia coli BL 21
  antibacterial effect (propagation of bacteria, absorbance at 550 nm): failed to show a significant antibacterial effect
S. sanguis ST160
  Minimum growth-inhibiting concentration: >400 µg/mL
[12]
  Minimum growth-inhibiting concentration: >400 µg/mL
[13]
  Minimum growth-inhibiting concentration: >400 µg/mL
Streptococcus mutans Xc
  Minimum growth-inhibiting concentration: >400 µg/mL
[14]
  antibacterial effect (propagation of bacteria, absorbance at 550 nm): remarkable antibacterial effects
[15]
  antibacterial effect (propagation of bacteria, absorbance at 550 nm): remarkable antibacterial effects
